Among the data in patent publication US8283353B2, “Fused ring compound and use thereof” (Takeda Pharmaceutical Company Limited, priority 2009, dated 2012) are activation and IC50 values, retold here.

For one assay, the target named is T1, human PPARγ (Homo sapiens, UniProt P37231).
T1 construct: expressed in transfected cells
T1 sequence (P37231 1-477 isoform P37231-2): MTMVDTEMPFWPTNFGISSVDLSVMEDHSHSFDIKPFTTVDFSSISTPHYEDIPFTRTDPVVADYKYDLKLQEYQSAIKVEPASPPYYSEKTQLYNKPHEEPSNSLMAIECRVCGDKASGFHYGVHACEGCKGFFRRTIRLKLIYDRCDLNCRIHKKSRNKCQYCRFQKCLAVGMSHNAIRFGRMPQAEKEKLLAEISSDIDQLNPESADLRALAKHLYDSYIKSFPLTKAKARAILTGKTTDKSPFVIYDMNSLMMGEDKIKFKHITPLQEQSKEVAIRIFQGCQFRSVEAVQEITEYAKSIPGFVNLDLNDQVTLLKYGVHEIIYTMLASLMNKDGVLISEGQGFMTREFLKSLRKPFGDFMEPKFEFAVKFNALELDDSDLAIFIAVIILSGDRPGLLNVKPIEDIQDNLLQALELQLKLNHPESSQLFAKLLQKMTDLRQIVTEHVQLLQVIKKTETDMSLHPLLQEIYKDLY
T1 sequence (P19793 1-462 partner): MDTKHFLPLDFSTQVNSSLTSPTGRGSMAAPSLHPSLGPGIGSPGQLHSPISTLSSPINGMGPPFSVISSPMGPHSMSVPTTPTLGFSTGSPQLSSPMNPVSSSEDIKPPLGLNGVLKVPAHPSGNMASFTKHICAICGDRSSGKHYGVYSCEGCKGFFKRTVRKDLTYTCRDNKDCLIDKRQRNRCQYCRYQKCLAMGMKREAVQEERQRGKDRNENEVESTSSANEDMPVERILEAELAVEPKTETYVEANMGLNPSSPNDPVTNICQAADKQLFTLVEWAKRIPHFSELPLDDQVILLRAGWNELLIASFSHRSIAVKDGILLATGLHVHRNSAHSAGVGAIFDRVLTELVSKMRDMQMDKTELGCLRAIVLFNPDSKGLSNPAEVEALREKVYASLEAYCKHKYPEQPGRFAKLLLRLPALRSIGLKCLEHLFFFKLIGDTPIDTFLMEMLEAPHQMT
The assay is described as follows: PPARγ agonistic activity: luciferase reporter assay in PPARγ:RXRα:4ERPP/CHO-K1 cells. The class given is cell-based. To be noted: CHO-K1, test compound 10^−6 M; luciferase activity of control compound X (1 μM) = 100%, non-administration group = 0%. An excerpt:
A CHO-K1 cell cultured in a 150 cm^2 cell culture flask [manufactured by Corning Costar Corporation, USA] comprising Ham's F12 medium [manufactured by INVITROGEN, USA] supplemented with 10% fetal bovine serum [manufactured by INVITROGEN, USA] was taken off by treating with 0.5 g/L trypsin-0.2 g/L EDTA (ethylenediamine tetraacetate) [manufactured by Life Technologies, Inc., USA], and then the cell was washed with PBS (Phosphate-buffered saline) [manufactured by INVITROGEN, USA], centrifuged (1000 rpm, 5 minutes) and suspended in PBS. Subsequently, DNA was introduced into the cell under the conditions shown below using GENE PULSER [manufactured by Bio-Rad Laboratories, USA].
Namely, to a cuvette having a 0.4 cm gap were added 8×10^6 cells and 10 μg of plasmid pVgRXR2-hPPARγ obtained in the above-mentioned (4) and 10 μg of reporter plasmid pGL3-4ERPP-TK neo obtained in the above-mentioned (3), which was subjected to electroporation at the voltage of 0.25 kV under the capacitance of […] Subsequently, the cell was transferred into a F12 medium comprising 10% fetal bovine serum and cultured for 24 hours, and then the cell was taken off again and centrifuged. Then, the pellet was suspended in Ham's F12 medium comprising 10% fetal bovine serum supplemented with 500 μg/ml of Geneticin [manufactured by INVITROGEN, USA] and 250 μg/ml of Zeocin [manufactured by INVITROGEN, USA]. The obtained suspension was diluted to the density of 10^4 cells/ml and inoculated in a 96-well plate [manufactured by Corning Costar Corporation, USA], which was cultured in a CO2 gas incubator at 37° C., whereby obtaining a Geneticin- and Zeocin-resistant transformant.
Subsequently, after the transformed cell line thus obtained was cultured in a 24-well plate [manufactured by Corning Costar Corporation, USA], a cell line in which expression of the luciferase was induced, i.e., PPARγ:RXRα:4ERPP/CHO-K1 cell was selected by the addition of 10 μM pioglitazone hydrochloride.
PPARγ:RXRα:4ERPP/CHO-K1 cells obtained in the above-mentioned (5) were cultured in F12 medium [manufactured by INVITROGEN, USA] containing 10% fetal bovine serum [manufactured by MOREGATE, Australia], seeded in a 96 well half-area white plate [manufactured by Corning Coster Corporation, USA] at 5×10^3 cells/well, and cultured in a CO2 incubator at 37° C. overnight.
Then, the medium was removed from the 96 well half-area white plate, hamF12 medium containing 0.1% fatty acid-free bovine serum albumin (BSA) (45 μl) and a test compound (5 μl) were added, and the mixture was cultured in the CO2 incubator at 37° C. for 1 day. After removing the medium, Picagene 7.5 [manufactured by Dai Nippon Inki, Japan] (20 μl) diluted 2-fold with HBSS (HANKS' BALANCED SALT SOLUTION) [manufactured by BIO […], USA] was added, and the mixture was stirred. Using 1420 ARVO Multilabel Counter [manufactured by PerkinElmer, USA], luciferase activity was measured. The percentage (%) was calculated from the luciferase activity of the test compound when the luciferase activity of the control compound (compound X: 5-[3-(4-{[2-(2-furyl)-5-methyl-1,3-oxazol-4-yl]methoxy}-3-methoxyphenyl)propyl]-1,3-oxazolidine-2,4-dione) (1 μM) was taken as 100% and the luciferase activity of the test compound non-administration group was taken as 0%.
Background: A reporter such as luciferase makes a cellular process visible.

The target of a further assay is T2, human AT1 receptor (Homo sapiens, UniProt P30556).
T2 construct: expressed in transfected cells; membrane fraction
T2 sequence (P30556 1-359): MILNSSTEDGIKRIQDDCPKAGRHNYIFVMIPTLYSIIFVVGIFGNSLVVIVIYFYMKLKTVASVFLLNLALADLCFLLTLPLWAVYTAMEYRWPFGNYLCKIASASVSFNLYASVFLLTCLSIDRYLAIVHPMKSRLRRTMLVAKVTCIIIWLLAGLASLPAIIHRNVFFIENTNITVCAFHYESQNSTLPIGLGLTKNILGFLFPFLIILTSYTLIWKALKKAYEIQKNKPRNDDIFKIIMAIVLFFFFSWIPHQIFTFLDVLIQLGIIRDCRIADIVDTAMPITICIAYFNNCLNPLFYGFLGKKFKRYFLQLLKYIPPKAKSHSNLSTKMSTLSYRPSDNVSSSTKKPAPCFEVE
Nature of the assay: AT1 receptor antagonistic activity: [125I]-angiotensin II binding assay on human AT1 receptor-expressing CHO-K1 cellular membrane fraction. To be noted: 22.5 pM [125I]-angiotensin II, 1 hr room temperature. The procedure: CHO-K1 cell (RIKEN, Japan) capable of stable expression of human AT1 receptor was cultured, recovered, suspended in homogenize buffer (10 mM NaHCO3 (pH 7.4), 5 mM EDTA, 1× Complete EDTA free) [manufactured by Roche, Switzerland], and homogenized. The homogenate was centrifuged at low-speed (900×g, 10 min, 4° C.), and the supernatant was recovered and ultracentrifuged (90,000×g, 1 hr, 4° C.). The supernatant was discarded, and the pellets were resuspended in suspension buffer (50 mM Tris (pH 7.4), 1 mM EDTA, 1× Complete EDTA free).
(9 μg) in the presence of AT1 membrane and test compound in 100 μl, (total reaction volume) of reaction buffer (50 mM Tris (pH 7.4), 10 mM MgCl2 supplemented or not supplemented with 0.3 mg/mL fatty acid-free bovine serum albumin [manufactured by Wako Pure Chemical Industries, Ltd., Japan]). The reaction mixture was incubated in 96 well polypropylene plate for 1 hr at room temperature, and the reaction was quenched by rapid filtration (96 well cell harvester) through a GF/C filter treated with wash buffer (50 mM Tris (pH 7.4)). Subsequently, the filter was washed 5 times with 0.3 mL of ice-cooled wash buffer. […] Total binding was measured in the presence of 1% DMSO and nonspecific binding was measured in the presence of […] Candesartan.

For `CCCc1c(Cc2ccc(-c3ccccc3-c3noc(=O)[nH]3)cc2)c(=O)n([C@H]2CC[C@H](OCC(O)C(F)(F)F)CC2)c2ccnn12` (relative stereo) [Example 428, 6-{[2′-(5-oxo-4,5-dihydro-1,2,4-oxadiazol-3-yl)biphenyl-4-yl]methyl}-7-propyl-4-[trans-4-(3,3,3-trifluoro-2-hydroxypropoxy)cyclohexyl]pyrazolo[1,5-a]pyrimidin-5(4H)-one], the activation at 1 µM on human PPARγ turned out to be 27%. Besides, the IC50 on human AT1 receptor came out at 1.9 nM. On the same counts, the results for `CCCCc1c(Cc2ccc(-c3ccccc3-c3noc(=O)[nH]3)cc2)c(=O)n([C@H]2CC[C@H](OCC(C)O)CC2)c2ccnn12` (relative stereo) [Example 436, 7-butyl-4-[trans-4-(2-hydroxypropoxy)cyclohexyl]-6-{[2′-(5-oxo-4,5-dihydro-1,2,4-oxadiazol-3-yl)biphenyl-4-yl]methyl}pyrazolo[1,5-a]pyrimidin-5(4H)-one] are 32% and 1.8 nM. The molecule `CCCc1c(Cc2ccc(-c3ccccc3-c3noc(=O)[nH]3)cc2F)c(=O)n([C@H]2CC[C@H](OCC(C)O)CC2)c2ccnn12` (relative stereo) [Example 437, 6-{[3-fluoro-2′-(5-oxo-4,5-dihydro-1,2,4-oxadiazol-3-yl)biphenyl-4-yl]methyl}-4-[trans-4-(2-hydroxypropoxy)cyclohexyl]-7-propylpyrazolo[1,5-a]pyrimidin-5(4H)-one] yielded an activation at 1 µM at human PPARγ of 30%. For the same molecule, on human AT1 receptor, the IC50 came out at 1.6 nM. With `CCCc1c(Cc2ccc(-c3ccccc3-c3noc(=O)[nH]3)cc2)c(=O)n([C@H]2CC[C@H](OC(C)C(C)(C)O)CC2)c2ncnn12` (single isomer, unassigned) [Example 319, 4-[trans-4-(2-hydroxy-1,2-dimethylpropoxy)cyclohexyl]-6-{[2′-(5-oxo-4,5-dihydro-1,2,4-oxadiazol-3-yl)biphenyl-4-yl]methyl}-7-propyl[1,2,4]triazolo[1,5-a]pyrimidin-5(4H)-one (retention time: long)], the activation at 1 µM on human PPARγ was 16%. On human AT1 receptor, this molecule displayed an IC50 of 2 nM. Regarding `CCCc1c(Cc2ccc(-c3ccccc3-c3noc(=O)[nH]3)cc2)c(=O)n(CC(C)(C)C)c2nc(C)nn12` [Example 2, 4-(2,2-dimethylpropyl)-2-methyl-6-{[2′-(5-oxo-4,5-dihydro-1,2,4-oxadiazol-3-yl)biphenyl-4-yl]methyl}-7-propyl[1,2,4]triazolo[1,5-a]pyrimidin-5(4H)-one], the activation at 1 µM on human PPARγ stood at 18%. The molecule further showed an IC50 on human AT1 receptor of 1.3 nM.

Molecule `CCCc1c(Cc2ccc(-c3ccccc3-c3noc(=O)[nH]3)cc2)c(=O)n(Cc2ccc(F)cc2)c2ncnn12` [Example 4, 4-(4-fluorobenzyl)-6-{[2′-(5-oxo-4,5-dihydro-1,2,4-oxadiazol-3-yl)biphenyl-4-yl]methyl}-7-propyl[1,2,4]triazolo[1,5-a]pyrimidin-5(4H)-one] displayed an activation at 1 µM at human PPARγ of 39%. In addition, the IC50 at human AT1 receptor was determined as 2.6 nM.

`CCCc1c(Cc2ccc(-c3ccccc3-c3noc(=O)[nH]3)cc2)c(=O)n(Cc2ccc(F)cc2)c2nc(C)nn12` [Example 5, 4-(4-fluorobenzyl)-2-methyl-6-{[2′-(5-oxo-4,5-dihydro-1,2,4-oxadiazol-3-yl)biphenyl-4-yl]methyl}-7-propyl[1,2,4]triazolo[1,5-a]pyrimidin-5(4H)-one] came in with an activation at 1 µM at human PPARγ of 18%. The same molecule came in with an IC50 on human AT1 receptor of 1.7 nM. In the same order, the values of `CCCc1c(Cc2ccc(-c3ccccc3-c3noc(=O)[nH]3)cc2)c(=O)n(Cc2ccc(CC)nc2)c2nc(C)nn12` [Example 7, 4-[(6-ethylpyridin-3-yl)methyl]-2-methyl-6-{[2′-(5-oxo-4,5-dihydro-1,2,4-oxadiazol-3-yl)biphenyl-4-yl]methyl}-7-propyl[1,2,4]triazolo[1,5-a]pyrimidin-5(4H)-one] are 26% and 2.4 nM.

Consider `CCCc1c(Cc2ccc(-c3ccccc3-c3noc(=O)[nH]3)cc2)c(=O)n(CC(C)(C)C)c2ncnn12` [Example 9, 4-(2,2-dimethylpropyl)-6-{[2′-(5-oxo-4,5-dihydro-1,2,4-oxadiazol-3-yl)biphenyl-4-yl]methyl}-7-propyl[1,2,4]triazolo[1,5-a]pyrimidin-5(4H)-one], for which the activation at 1 µM on human PPARγ was 17%. For the same molecule, the IC50 on human AT1 receptor was 2.1 nM. On to `CCCCc1c(Cc2ccc(-c3ccccc3-c3noc(=O)[nH]3)cc2)c(=O)n(C2CCOC(C)C2)c2ncnn12` (stereo not shown) [Example 161, 7-butyl-4-(2-methyltetrahydro-2H-pyran-4-yl)-6-{[2′-(5-oxo-4,5-dihydro-1,2,4-oxadiazol-3-yl)biphenyl-4-yl]methyl}[1,2,4]triazolo[1,5-a]pyrimidin-5(4H)-one], for which the IC50 at human AT1 receptor was determined as 1.2 nM.

One may read the IC50 as the concentration at which inhibition is half-maximal.
